Read-outs that look alike come from different tables or passages of the source.
What was measured:
Format in all cases: in vivo, human
[1] = system: person with secondary progressive multiple sclerosis (SPMS); experiment: Patient A case: daptomycin given for MRSA infection (Examples 1, 3); conditions: for muscle and nerve pain, muscle stiffness: patient-reported
Description: The novel use of daptomycin in the treatment and/or prevention of multiple sclerosis in mammals, particularly human, is based on the recent observation of a patient (Patient A) with multiple sclerosis whose progressive neurological disability stabilized after treatment with daptomycin for skin infections caused by methicillin resistant Staphalococcus aureus. Previously, their neurological disability had progressed despite treatment with standard FDA approved therapies as well as investigational therapies, some of which they developed severe allergic reactions to. […] More detail about Patient A is provided in Example 3. Patient A is a person who has suffered from multiple sclerosis. Their disease started with left arm and leg weakness. During the early course of the disease, they experienced frequent relapses. Progressive relapsing continued, with increasing lower extremity weakness. The patient characterized their left arm as feeling like dead weight. Patient A developed diverticulitis in 2006. Their EDSS (Expanded Disability Status Scale) was 5.5 in February, 2007, i.e., patient was able to walk 100 meters without aid or rest; their EDSS was 6.0 by the end of the year, i.e., patient required intermittent or constant assistance with a cane, crutch or brace to walk 100 meters. Daptomycin therapy was initiated to treat a MRSA infection after Patient A had knee surgery. They received a daptomycin dose of 100 mg for four weeks. Three months later, they had re-treatment with 500 mg daily for about four weeks.

[2] = system: patients with progressive and relapsing forms of multiple sclerosis
Experimental: Seventeen patients with relapsing remitting (4 patients) and chronic progressive multiple sclerosis […] have received daptomycin therapy at 4 mg/kg IV for periods ranging from five to 21 days. This patient group included Patient A and Patient B from the above examples.
Four out of seventeen patients have received daptomycin for acute relapses, after not responding to, or wishing to be taken of, solumedrol therapy.
Thirteen patients with chronic progressive multiple sclerosis received daptomycin therapy for symptoms of multiple sclerosis that were progressing, or to improve present symptoms. […] In all chronic progressive patients who report responses to the drug, maintenance doses starting with once a week with or without the addition of intravenous corticosteroids are given. Doses of daptomycin 2 mg/kg are given to patients who report fatigue as a significant side effect.
Overall, in the same study, daptomycin was administered to a total of 30 patients. 14 responded to treatment (47%).
Daptomycin was administered as a daily IV infusion at 3 mg/kg, 4 mg/kg or 6 mg/kg as per standard guidelines for 5 to 21 days, then as a maintenance dose of 3 mg/kg, 4 mg/kg or 6 mg/kg once every one to four weeks. Patients were monitored by telephone calls. CPK levels were done as clinically indicated. Patients were selected on the basis of failure or intolerance on other treatments and continued disease activity.

[3] = system: person with multiple sclerosis with almost weekly relapses; experiment: Patient B case: daptomycin for relapses (Example 2); conditions: for ambulation: acute relapse (nonambulatory)
Description: This is described in more detail in Example 2. Patient B is a person who was first diagnosed with multiple sclerosis in 1981. The course of their illness was characterized through the years by increasingly frequent relapses and progressive disability. They had initially been treated with azathioprine and, subsequently with interferons, including Betaseron™ and Avonex®, and Copaxone®. As adjunct treatments, they received innumerable courses of intravenous methylprednisolone, as well as cyclophosphamide, since 2005. In addition, they have also received mycophenylate mofetil, plasma exchange monthly, intravenous immunoglobulin monthly, natalizumab, daclizumab and rituximab. None of these regimens adequately controlled their many relapses, which were characterized by worsening gait and appendicular ataxia, weakness in their limbs, vertigo and diplopia and severe migraine headaches. In late 2008 and 2009, they were hospitalized seven times for relapses. Since 2005, they had received more than 50 courses of steroid and/or cyclophosphamide treatments for relapses not requiring hospitalization. These treatments would induce partial and short lasting remissions. During 2009, they were having relapses on a weekly basis. During remissions, they were able to walk only with a walker. Daptomycin 4 mg/kg intravenously [hereinafter “IV”] was administered to patient B for five days for an acute relapse which made the patient nonambulatory. […] They did have an allergic reaction with chest tightness and blistering at the injection site that was determined to be caused by the tape securing their IV catheter. […] Daptomycin 4 mg/kg/IV was administered for five additional days with pretreatment with solumedrol in the total amount of 100 mg IV and diphenhydramine in the total amount of 50 mg IV with improvement. Daptomycin was then ordered 4 mg/kg/IV once a week. Three days after their first weekly dose, they began to feel more off balanced and their headache became more severe. Daptomycin orders were revised to 4 mg/kg IV once a week in co-administration with solumedrol 1 gram IV.

[4] = Patient A, listed as daptomycin
[5] = RPMS (relapsing progressive MS)
[6] = patient thirteen, SPMS, DD 4 yrs, EDSS pretx 4, 4 mg/kg/d × five days (relapse), status D (discontinued)
[7] = secondary progressive MS (SPMS)

CCCCCCCCCC(=O)N[C@@H](Cc1c[nH]c2ccccc12)C(=O)N[C@H](CC(N)=O)C(=O)N[C@@H](CC(=O)O)C(=O)N[C@@H]1C(=O)NCC(=O)N[C@@H](CCCN)C(=O)N[C@@H](CC(=O)O)C(=O)N[C@H](C)C(=O)N[C@@H](CC(=O)O)C(=O)NCC(=O)N[C@H](CO)C(=O)N[C@@H]([C@H](C)CC(=O)O)C(=O)N[C@@H](CC(=O)c2ccccc2N)C(=O)O[C@@H]1C [Daptomycin, N-decanoyl-L-trypotophyl-D-asparaginyl-L-aspartyl-L-threonylglycyl-L-ornithyl-L-aspartyl-D-alanyl-L-aspartylglycyl-D-seryl-threo-3-methyl-L-glutamyl-3-anthraniloyl-L-alanine ε1-lactone]
left upper extremity strength, sensation, numbness ([1]; Patient A): numbness in their left arm was improved | walking ([1]; Patient A, after the first daptomycin treatment (100 mg for four weeks)): slight improvement in walking | gait / need of cane ([1]; Patient A, after the second treatment (500 mg daily about four weeks)): did not require their cane, but could walk unassisted | progressive neurological disability ([1]; Patient A, after treatment with daptomycin for MRSA skin infections): stabilized | walking ([1]; Patient A, during and after treatment): able to walk extended distances without their cane | EDSS (Expanded Disability Status Scale) ([1]; Patient A, four weeks after discontinuing daptomycin, EDSS was 6.0 before, 100 mg for four weeks, re-treatment 500 mg daily about four weeks): 2.5 | muscle and nerve pain, muscle stiffness ([1]; Patient A): improvement in muscle pain and stiffness | muscle and nerve pain, muscle stiffness [1, 4]: significant decrease in their muscle and nerve pain as well as muscle stiffness | left upper extremity strength, sensation, numbness [1, 4]: increase in strength and sensation of their left upper extremity | functional improvement ([1]; person with SPMS poorly responsive to other therapies): dramatic and sustained functional improvement | subgroup response [2, 5]: 0% | subgroup response (responders/treated) [2, 5]: 0/2 | patient-reported strength and sensation ([2]; four out of seventeen patients given daptomycin for acute relapses, 4 mg/kg IV): Three patients reported improvement in their strength and sensation | creatine phosphokinase level (CPK) ([2]; human, in vivo): 217 | hospitalizations ([2]; human, in vivo): Two patients were hospitalized for confusion and increased symptoms | most common side effect during the course of therapy ([2]; human, in vivo): fatigue | fatigue associated with therapy ([2]; human, in vivo, iv, 4 mg/kg): Three patients noted that daptomycin therapy was associated with significant fatigue | EDSS (last) ([2]; patient eight, SPMS, DD 12 yrs, EDSS pretx 7, 4 mg/kg × one dose, status D (discontinued)): 7 | EDSS (last) ([2]; patient eighteen, SPMS, DD 5 yrs, EDSS pretx 6, 4 mg/kg × 5 days, then 4 mg/kg q week, status D (discontinued)): 6 | EDSS (last) ([2]; patient eleven, SPMS, DD 24 yrs, EDSS pretx 6.5, 4 mg/kg/day × 14 days (relapse), status D (discontinued)): 6.5 | EDSS (last) ([2]; patient fifteen, SPMS, DD 25 yrs, EDSS pretx 6.5, 4 mg/kg/d × 5 days (two courses), 4 mg/kg/week, status A (active)): 6.5 | EDSS (last) ([2]; patient five, RRMS, DD 7 yrs, EDSS pretx 2.5, 4 mg/kg/day × 5 days, status D (discontinued)): 2.5 | EDSS (last) ([2]; patient four, RRMS, DD 15 yrs, EDSS pretx 2.5, 4 mg/kg/d × 14 days, then 4 mg/kg/q 1-2 wks, status D (discontinued)): 2 | EDSS (last) ([2]; patient fourteen, SPMS, DD 9 yrs, EDSS pretx 6, 4 mg/kg × 5 days, then 4 mg/kg q 2 wks, status A (active)): 6 | EDSS (last) ([2]; patient nine, SPMS, DD 13 yrs, EDSS pretx 6.5, 4 mg/kg/d × 5 days, 4 mg/kg q 2 wks, status A (active)): 6.5 | EDSS (last) ([2]; patient nineteen, SPMS, DD 21 yrs, EDSS pretx 6.5, 4 mg/kg × 21 days. D/Ced p 2½ wks, status D (discontinued)): 6.5 | EDSS (last) ([2]; patient one, TMS, DD 12 yrs, EDSS pretx 6, 4 mg/kg × 21 days, status D (discontinued)): 6 | EDSS (last) ([2]; patient seven, RRMS, DD 6 yrs, EDSS pretx 3.5, 4 mg/kg/d × 14 days, status D (discontinued)): 3.5 | EDSS (last) ([2]; patient seventeen, RRMS, DD 7 yrs, EDSS pretx 0, 4 mg/kg/d × 3 days, then 4 mg/kg/week, status A (active)): 1 | EDSS (last) ([2]; patient six, RPMS, DD 12 yrs, EDSS pretx 6, 4 mg/kg/d × 3 days, then 4 mg/kg/week, status D (discontinued)): 6 | EDSS (last) ([2]; patient sixteen, PPMS, DD 18 yrs, EDSS pretx 8.5, 4 mg/kg/d × 15 days, the 4 mg/kg/week, status D (discontinued)): 8.5 | EDSS (last) ([2]; patient ten, RRMS, DD 15 yrs, EDSS pretx 3, 4 mg/kg/d × 16 days, 4 mg/kg/wk × 4, then 4 mg/kg/q o wk, status A (active)): 3 | EDSS (last) [2, 6]: 3.5 | Outcome [2, 6]: No benefit | EDSS (last) ([2]; patient thirty, SPMS, DD 17 yrs, EDSS pretx 6, 4 mg/kg/d × 10 days, status D (discontinued)): 6 | EDSS (last) ([2]; patient three, RPMS, DD 18 yrs, EDSS pretx 6.5, 4 mg/kg/d × 5 days, status D (discontinued)): 6.5 | EDSS (last) ([2]; patient twelve, SPMS, DD 9 yrs, EDSS pretx 4, 4 mg/kg × 21 days, status D (discontinued)): 4 | EDSS (last) ([2]; patient twenty, SPMS, DD 16 yrs, EDSS pretx 6.5, 4 mg/kg/day × 21 days, then 4 mg/kg q 2 weeks, status A (active)): 6.5 | EDSS (last) ([2]; patient twenty-eight, SPMS, DD 15 yrs, EDSS pretx 6.5, 4 mg/kg/d × 10 days, then 4 mg/kg/wk, status A (active)): 6 | EDSS (last) ([2]; patient twenty-five, SPMS, DD 6 yrs, EDSS pretx 6.5, 4 mg/kg/d × 5 days, status D (discontinued)): 7 | EDSS (last) ([2]; patient twenty-four, SPMS, DD 15 yrs, EDSS pretx 6.5, 4 mg/kg/d × 10 days, then 4 mg/kg/wk, status A (active)): 6.5 | EDSS (last) ([2]; patient twenty-nine, SPMS, DD 16 yrs, EDSS pretx 6.5, 4 mg/kg × 21 days, then 4 mg/kg q 2 wks, status A (active)): 6.5 | EDSS (last) ([2]; patient twenty-one, SPMS, DD 11 yrs, EDSS pretx 5.5, 4 mg/kg/day × 21 days, 4 mg/kg q wk. 6 mg/kg/d times 14 days, status D (discontinued)): 6 | EDSS (last) ([2]; patient twenty-seven, SPMS, DD 10 yrs, EDSS pretx 6, 4 mg/kg/d × 5 days, 2 mg/kg q 2 wks, status A (active)): 6 | EDSS (last) ([2]; patient twenty-six, TMS, DD 23 yrs, EDSS pretx 4, 4 mg/kg/d × 14 days, status D (discontinued)): 4 | EDSS (last) ([2]; patient twenty-three, RRMS, DD 11 yrs, EDSS pretx 2, 4 mg/kg × 5 days (relapse). Repeated 3 mos later (relapse), status D (discontinued)): 2.5 | EDSS (last) ([2]; patient twenty-two, SPMS, DD 6 yrs, EDSS pretx 6.5, 4 mg/k/d × 5 days, status D (discontinued)): 6.5 | EDSS (last) ([2]; patient two, SPMS, DD 11 yrs, EDSS pretx 6, 500 mg IV × 5 weeks, 4 mg/kg × 4 wks, 4 mg/kg q wk, status A (active)): 2.5 | patients showing clinically significant improvement in symptoms of multiple sclerosis ([2]; patients with progressive and relapsing MS unresponsive to multiple therapies): 47% | subgroup response ([2]; primary progressive MS (PPMS)): 0% | subgroup response (responders/treated) ([2]; primary progressive MS (PPMS)): 0/1 | subgroup response ([2]; relapsing remitting MS (RRMS)): 50% | subgroup response (responders/treated) ([2]; relapsing remitting MS (RRMS)): 3/6 | subgroup response [2, 7]: 47% | subgroup response (responders/treated) [2, 7]: 9/19 | patient-reported strength ([2]; thirteen patients with chronic progressive multiple sclerosis, 4 mg/kg IV): Nine patients reported better strength | patients who responded to treatment ([2]; total of 30 patients): 47% | patients who responded to treatment (number) ([2]; total of 30 patients): 14 | subgroup response ([2]; transitional MS (TMS)): 100% | subgroup response (responders/treated) ([2]; transitional MS (TMS)): 2/2 | ambulation ([3]; 4 mg/kg IV for five days, third day): able to walk with their walker | ambulation ([3]; 4 mg/kg IV, after five days): able to take a few steps without their walker | duration of stability after initial course ([3]; after initial 4 mg/kg IV for five days, then recurrence of ataxia and increased headaches, less severe): stable for approximately one week | response of relapses ([3]; consecutive courses of daptomycin for three to five days): respond very rapidly | frequency of relapses ([3]; daptomycin at regular intervals (4 mg/kg IV once a week with solumedrol 1 gram IV)): marked decrease in the frequency of their relapses | frequency of relapses and neurological disability ([3]; intravenous daptomycin 4 mg/kg): stabilized both in terms of the frequency of their relapses and neurological disability

— patent US8664209B2, “Daptomycin for multiple sclerosis” (priority 2009, dated 2014)
